Activity calls are given as the source filed them.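 Rule for the calls: active = tumour findings in long-term animal cancer tests in more than one sex, species or organ; inactive = no tumour finding and more than one negative test.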

This data set is described as follows: DSSTox (CPDBAS) Carcinogenic Potency Database Summary MultiCellCall Results. The conditions noted are these: animal carcinogenicity bioassays, multi-cell call summary. The method in brief:
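Summary call drawn from chronic long-term cancer bioassays in rats, mice, hamsters, dogs and nonhuman primates, using the most positive result per sex-species. Score: multispecies=50, multisex=30, multisite=20, summed for combinations.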
`Cc1cc(C)c(N)cc1C`: the outcome was “active; multisite active; multisex active; multispecies active”.

In the case of `COc1cc(S(C)=O)ccc1-c1nc2ccncc2[nH]1` (configuration not stated), the outcome is “active; multisex active”.

In the case of `Nc1ccc2c(c1)C(=O)c1ccccc1C2=O`, the outcome is “active; multisite active; multisex active; multispecies active”.

Turning to `COC(=O)NN`, the outcome is “inactive; multisex inactive”.

`O=C1C2CC=CCC2C(=O)N1SC(Cl)(Cl)Cl` (configuration not stated): the outcome is “active; multisite active; multisex active; multispecies active”.

For `CCNC(=O)Nc1ncc([N+](=O)[O-])s1`, the outcome was “active; multisite active; multisex active; multispecies active”.

In the case of `C#C[C@]1(O)CC[C@H]2[C@@H]3CCC4=C(CCC(=O)C4)[C@H]3CC[C@@]21C`, the outcome was “inactive; multisex inactive”.

For `CC(C)(C)c1cc(CO)cc(C(C)(C)C)c1O`, the outcome is “inactive; multisex inactive”.

Turning to `CC1=CC(=O)CC(C)(C)C1`, the outcome was “active; multisite active”.

For the compound `CCCCNN`, the outcome is “active; multisex active”.

With `C[C@H](CCC(=O)O)[C@H]1CC[C@H]2[C@@H]3CC[C@@H]4C[C@H](O)CC[C@]4(C)[C@H]3CC[C@]12C`, the outcome was “inactive; multisex inactive; multispecies inactive”.

Turning to `NC(=O)N/N=C/c1ccc([N+](=O)[O-])o1`, the outcome is “active; multisite active; multispecies active”.

As for `CN(C)C(=S)S`, the outcome is “inactive; multisex inactive”.

Regarding `COP(=S)(OC)Oc1ccc(SC)c(C)c1`, the outcome was “inactive; multisex inactive; multispecies inactive”.

With `NC(=S)NNC(N)=S`, the outcome was “inactive; multisex inactive; multispecies inactive”.

On to `COP(=S)(OC)Oc1ccc([N+](=O)[O-])cc1`, for which the outcome was “inactive; multisex inactive; multispecies inactive”.

Turning to `O=[N+]([O-])c1ccc(NCCO)c(OCCO)c1`, the outcome was “inactive; multisex inactive; multispecies inactive”.

For the compound `CCC1CO1` (configuration not stated), the outcome is “active; multisite active”.

`Nc1ccc(Cc2ccc(N)c(Cl)c2)cc1Cl`: the outcome was “active; multisite active; multisex active; multispecies active”.

With `FC(F)(Cl)C(F)(Cl)Cl`, the outcome was “inactive; multisex inactive”.

As for `C[C@@H]1Cc2c(Cl)cc(C(=O)N[C@@H](Cc3ccccc3)C(=O)O)c(O)c2C(=O)O1`, the outcome is “active; multisite active; multisex active; multispecies active”.

Turning to `ClCc1cccnc1`, the outcome was “active; multisex active; multispecies active”.

`Cc1ccccc1`: the outcome is “active; multisite active; multisex active”.

As to `O=[N+]([O-])c1ccc2ccc3cccc4ccc1c2c34`, the outcome is “active; multisite active”.

For the compound `c1ccncc1`, the outcome is “active; multisite active; multisex active; multispecies active”.

As to `NC(=S)Nc1ccccc1`, the outcome was “inactive; multisex inactive; multispecies inactive”.

In the case of `CCCCN(CCCCO)N=O`, the outcome was “active; multisite active; multisex active”.

Consider `CNc1ncnc2c1ncn2[C@@H]1O[C@H](CO)[C@@H](O)[C@H]1O`, for which the outcome was “inactive; multisex inactive”.

As for `O=C(O)CN(CCN(CC(=O)O)CC(=O)O)CC(=O)O`, the outcome was “inactive; multisex inactive; multispecies inactive”.

Consider `COc1cc(/C=C/C(=O)CC(=O)/C=C/c2ccc(O)c(OC)c2)ccc1O`, for which the outcome is “inactive; multisex inactive; multispecies inactive”.

Regarding `CC(O)CN(CC(O)CO)N=O` (configuration not stated), the outcome was “active; multisite active; multispecies active”.

On to `C[C@@H]1CC2(O[C@@H]2C)C(=O)O[C@@H]2CCN(C)C/C=C(/COC(=O)[C@]1(C)O)C2=O` (some centres not stated), for which the outcome is “active; multisite active; multisex active”.

On to `Nc1nc(/C=C/c2ccc([N+](=O)[O-])o2)no1`, for which the outcome is “active; multisite active; multisex active”.

On to `C=C1C/C(=C/C)C(=O)O[C@@H]2CCN3CC=C(COC(=O)[C@@]1(O)CO)[C@H]23`, for which the outcome is “active; multisite active; multisex active; multispecies active”.

Regarding `NC(=O)c1ccccc1C(N)=O`, the outcome was “inactive; multisex inactive; multispecies inactive”.

`CC(=O)CN(CC(O)CO)N=O` (configuration not stated): the outcome is “active; multisite active; multispecies active”.

Consider `CN1C(=O)C(O)N=C(c2ccccc2)c2cc(Cl)ccc21` (configuration not stated), for which the outcome is “inactive; multisex inactive”.

Consider `COc1cc2c(c3oc(=O)c4c(c13)CCOC4=O)C1C=COC1O2` (configuration not stated), for which the outcome is “active; multisite active; multispecies active”.

Turning to `Cn1nc(CO)nc1NCCCOc1cccc(CN2CCCCC2)c1`, the outcome was “active; multisex active”.

Consider `CNC(=O)CSP(=S)(OC)OC`, for which the outcome was “inactive; multisex inactive; multispecies inactive”.

As to `O=C(Nc1cccc2c(=O)cc(-c3nn[nH]n3)oc12)c1ccc(OCCCCc2ccccc2)cc1`, the outcome was “inactive; multisex inactive”.

`Cc1c(N)cccc1N`: the outcome is “inactive; multisex inactive; multispecies inactive”.

Take `CCc1cccc2c3c([nH]c12)C(CC)(CC(=O)O)OCC3` (configuration not stated): the outcome is “inactive; multisex inactive; multispecies inactive”.

Turning to `[Cd+2].[Cl-].[Cl-]`, the outcome is “active; multisite active; multisex active”.

Take `O=C(OOC(=O)c1ccccc1)c1ccccc1`: the outcome is “inactive; multispecies inactive”.

As to `[Na+]`, the outcome was “inactive; multisex inactive; multispecies inactive”.

In the case of `[K+]`, the outcome is “active; multisex active”.

Regarding `S=[Se]`, the outcome is “active; multisite active; multisex active; multispecies active”.

With `CN(C)C(=S)[S][Pb][S]C(=S)N(C)C`, the outcome was “inactive; multisex inactive; multispecies inactive”.

With `COc1ccc(C(c2ccc(OC)cc2)C(Cl)(Cl)Cl)cc1`, the outcome is “inactive; multisex inactive; multispecies inactive”.

In the case of `c1ccc(C2CO2)cc1` (configuration not stated), the outcome is “active; multisex active; multispecies active”.

Turning to `c1ccc2ccccc2c1`, the outcome is “active; multisite active; multisex active; multispecies active”.

With `O=[N+]([O-])c1ccc(Cl)cc1`, the outcome was “active; multisite active; multisex active”.

In the case of `CC(O)COC(C)(C)C` (configuration not stated), the outcome is “active; multisex active”.

For the compound `C=C(Cl)Cl`, the outcome is “active; multisite active; multisex active”.

Regarding `CCCCCCCC/C=C\CCCCCCCC(=O)O`, the outcome is “inactive; multisex inactive”.

For `Nc1ccc2oc3ccccc3c2c1`, the outcome is “active; multisite active; multisex active”.

For the compound `CCNC(=O)N(CCN(C)C)N=O`, the outcome is “active; multisite active”.

As for `ClC1=C(Cl)[C@@]2(Cl)[C@@H]3[C@@H](Cl)[C@H](Cl)C[C@@H]3C1(Cl)C2(Cl)Cl`, the outcome is “active; multisex active”.

For the compound `c1ccc2n[nH]nc2c1`, the outcome was “inactive; multisex inactive; multispecies inactive”.

`O=NN1CCCC1c1ccc[n+]([O-])c1` (configuration not stated): the outcome was “active; multisite active; multisex active”.

Take `O=c1ccc(=O)[nH][nH]1`: the outcome is “inactive; multisex inactive; multispecies inactive”.

For `Nc1ccc([N+](=O)[O-])cc1`, the outcome was “inactive; multisex inactive; multispecies inactive”.

As for `Cc1cccn2c1nc1ccc(N)nc12`, the outcome was “active; multisite active; multisex active; multispecies active”.

For the compound `CCN(CC)C(=O)c1cccc(C)c1`, the outcome is “inactive; multisex inactive; multispecies inactive”.

On to `NNCCc1ccccc1`, for which the outcome is “active; multisite active”.

`O1[As]2O[As]3O[As]1O[As](O2)O3`: the outcome is “inactive; multisex inactive”.

With `COC(N)=O`, the outcome is “active; multisex active”.

Regarding `O=S1(=O)CCCO1`, the outcome was “active; multisite active; multisex active”.

Consider `ClC1=C(Cl)[C@]2(Cl)[C@@H]3[C@H]4C[C@H]([C@@H]5O[C@H]45)[C@@H]3[C@@]1(Cl)C2(Cl)Cl`, for which the outcome was “inactive; multisex inactive; multispecies inactive”.

Regarding `C=COC(C)=O`, the outcome was “active; multisite active; multisex active; multispecies active”.

Take `[S-]c1nc2ccccc2s1.[S-]c1nc2ccccc2s1.[Zn+2]`: the outcome was “inactive; multisex inactive”.

On to `N=C1C=CC(=C(c2ccc(N)cc2)c2ccc(N)cc2)C=C1`, for which the outcome was “active; multisite active; multisex active; multispecies active”.

Regarding `CCCCCCCCCCC(C)c1ccc(S(=O)(=O)O)cc1` (configuration not stated), the outcome is “inactive; multisex inactive”.

Turning to `CCCN(N)C=O`, the outcome was “active; multisite active; multisex active”.

Consider `CC(C)NCC(O)COc1cccc2ccccc12` (configuration not stated), for which the outcome was “inactive; multisex inactive; multispecies inactive”.

As for `ClC(Cl)C(Cl)(Cl)Cl`, the outcome is “active; multisex active”.

On to `CCCCCN(N=O)C(=O)OCC`, for which the outcome was “active; multisite active”.

Take `c1ccc2c(c1)cc1ccc3cccc4ccc2c1c34`: the outcome was “active; multisite active; multisex active; multispecies active”.

Regarding `C=CC1=C(C)C2=CC3=NC(=C(CC(=O)[O-])C4=NC(=C(C)C4=C([O-])[O-])C=c4[n-]c(c(C)c4CC)=CC1=N2)[C@@H](CCC(=O)[O-])[C@@H]3C.[Cu+2].[Na+].[Na+].[Na+]`, the outcome is “inactive; multisex inactive”.

In the case of `Nc1nnc(-c2ccc([N+](=O)[O-])o2)o1`, the outcome was “active; multisite active”.

For `CN1[C@@H]2CC(OC(=O)[C@@H](CO)c3ccccc3)C[C@H]1[C@@H]1O[C@@H]12` (some centres not stated), the outcome is “inactive; multisex inactive; multispecies inactive”.

For the compound `Cc1c(-c2cnccn2)ssc1=S`, the outcome was “inactive; multisex inactive”.

In the case of `COC(=O)C(c1ccccc1)C1CCCCN1` (configuration not stated), the outcome is “active; multisex active”.

As to `Clc1nc(Cl)nc(Nc2ccccc2Cl)n1`, the outcome was “inactive; multisex inactive; multispecies inactive”.

For `Cc1cc(C)nc(NS(=O)(=O)c2ccc(N)cc2)n1`, the outcome was “active; multisex active”.

For `Nc1ccc(S(=O)(=O)c2ccc(N)cc2)cc1`, the outcome is “active; multisite active”.
